Test [1] relates to T47D. In words: Inhibition of human progesterone receptor A protein expression transfected in human T47D cells at 200 nM by Western blot. The format is functional. (In general: A western blot detects proteins with antibodies after separation by electrophoresis.)
Test [2] concerns T47D. Nature of the test: Inhibition of human progesterone receptor B protein expression transfected in human T47D cells at 200 nM by Western blot. Type of test: functional.
The test system of test [3] is T47D. Nature of the test: Inhibition of human progesterone receptor A protein expression transfected in human T47D cells at 200 nM in presence of 10 nM of estradiol by Western blot. The format is functional, cell-based.
Test [4] relates to T47D. Nature of the test: Inhibition of human progesterone receptor B protein expression transfected in human T47D cells at 200 nM in presence of 10 nM of estradiol by Western blot. The format is functional, cell-based.
The subject of test [5] is T47D. Nature of the test: Inhibition of human progesterone receptor A gene expression transfected in human T47D cells at 200 nM by RT-PCR. The format is functional, cell-based.
For test [6], the system named is T47D. In words: Inhibition of human progesterone receptor B gene expression transfected in human T47D cells at 200 nM by RT-PCR. The format is functional, cell-based.
Test [7] concerns T47D. Nature of the test: Induction of morphology changes in human T47D cells expressing human progesterone receptor assessed as increase in cell height by confocal microscopy. Type of test: functional, cell-based.
For test [8], the system named is T47D. In words: Reduction in cell proliferation of human T47D cells expressing human progesterone receptor by FACS method. Type of test: functional, cell-based.
For test [9], the system named is T47D. Nature of the test: Increase in Ezrin mRNA expression in human T47D cells expressing human progesterone receptor by RT-PCR relative to untreated control. The format is functional.

What is called inhibition is the relative decrease from the control value, in per cent.

Active and inactive are the calls of the source. The calls are words filed in the database; no cut-off is given here.

Consider `Cc1cn(CC(=O)N(CCNC(=O)CN(CCNC(=O)CN(CCNC(=O)CN(CCNC(=O)CN(CCNC(=O)CN(CCNC(=O)CNC(=O)[C@@H](N)CCCCN)C(=O)Cn2cc(C)c(=O)[nH]c2=O)C(=O)Cn2cnc3c(=O)[nH]c(N)nc32)C(=O)Cn2cnc3c(N)ncnc32)C(=O)Cn2cnc3c(=O)[nH]c(N)nc32)C(=O)Cn2ccc(N)nc2=O)CC(=O)NCCN(CC(=O)NCCN(CC(=O)NCCN(CC(=O)NCCN(CC(=O)NCCN(CC(=O)NCCN(CC(=O)NCCN(CC(=O)NCCN(CC(=O)NCCN(CC(=O)NCCN(CC(=O)NCCN(CC(=O)NCCN(CC(=O)NCCN(CC(=O)NC(CCCCN)C(=O)O)C(=O)Cn2cc(C)c(=O)[nH]c2=O)C(=O)Cn2cnc3c(=O)[nH]c(N)nc32)C(=O)Cn2cnc3c(=O)[nH]c(N)nc32)C(=O)Cn2cnc3c(=O)[nH]c(N)nc32)C(=O)Cn2cnc3c(N)ncnc32)C(=O)Cn2cnc3c(N)ncnc32)C(=O)Cn2cnc3c(N)ncnc32)C(=O)Cn2ccc(N)nc2=O)C(=O)Cn2cnc3c(=O)[nH]c(N)nc32)C(=O)Cn2cnc3c(=O)[nH]c(N)nc32)C(=O)Cn2cnc3c(N)ncnc32)C(=O)Cn2cnc3c(N)ncnc32)C(=O)Cn2cnc3c(=O)[nH]c(N)nc32)c(=O)[nH]c1=O` (stereo partly drawn), for which the inhibition at 0.2 µM with T47D [1] and with T47D [2] was 75% in each case. Moreover, the inhibition result with T47D [3] and with T47D [4] was “Active” each time. Besides, the inhibition result with T47D [5] and with T47D [6] was “inactive” each time. The result with T47D [7] and in the test on T47D [8] was Active. Further, the “fold change (FC)” value in the test with T47D [9] was determined as 8.
On to `Cc1cn(CC(=O)N(CCNC(=O)CNC(=O)[C@@H](N)CCCCN)CC(=O)NCCN(CC(=O)NCCN(CC(=O)NCCN(CC(=O)NCCN(CC(=O)NCCN(CC(=O)NCCN(CC(=O)NCCN(CC(=O)NCCN(CC(=O)NCCN(CC(=O)NCCN(CC(=O)NCCN(CC(=O)NCCN(CC(=O)NCCN(CC(=O)NCCN(CC(=O)NCCN(CC(=O)NCCN(CC(=O)NCCN(CC(=O)NCCN(CC(=O)N[C@@H](CCCCN)C(=O)O)C(=O)Cn2ccc(N)nc2=O)C(=O)Cn2cnc3c(=O)[nH]c(N)nc32)C(=O)Cn2cnc3c(=O)[nH]c(N)nc32)C(=O)Cn2cnc3c(N)ncnc32)C(=O)Cn2cnc3c(N)ncnc32)C(=O)Cn2cnc3c(=O)[nH]c(N)nc32)C(=O)Cn2cc(C)c(=O)[nH]c2=O)C(=O)Cn2ccc(N)nc2=O)C(=O)Cn2cnc3c(=O)[nH]c(N)nc32)C(=O)Cn2cnc3c(N)ncnc32)C(=O)Cn2cnc3c(=O)[nH]c(N)nc32)C(=O)Cn2cc(C)c(=O)[nH]c2=O)C(=O)Cn2ccc(N)nc2=O)C(=O)Cn2cnc3c(N)ncnc32)C(=O)Cn2cnc3c(=O)[nH]c(N)nc32)C(=O)Cn2cc(C)c(=O)[nH]c2=O)C(=O)Cn2cnc3c(N)ncnc32)C(=O)Cn2ccc(N)nc2=O)c(=O)[nH]c1=O`, for which the inhibition at 0.2 µM with T47D [1] and in the test with T47D [2] was 75% in each case. The inhibition result in the test on T47D [3] and in the test on T47D [4] was “Active” in each case. Moreover, the inhibition entry in the test on T47D [5] and in the test with T47D [6] was “inactive” throughout. For the same molecule, the outcome in the test on T47D [7] and in the test with T47D [8] was Active. In addition, in the test with T47D [9], the “fold change (FC)” value was 6.

The values above are taken from ChEMBL document CHEMBL1240303, “Inhibiting transcription of chromosomal DNA with antigene peptide nucleic acids” (2005).
